Results from US20250215039A1, “NUCLEOSIDES FOR TREATING CANCER” (PRIMEFOUR THERAPEUTICS, INC., priority 2022, published 2025).
Like-named read-outs stand apart in the source and are kept apart here.

Test system: cancer cell lines
Assay: Cancer cell proliferation activity (CellTiterGlo, 72 h)
Type: cell-based
Conditions: 72 h, 72 h, read-out: IC50
Method: Dose response relationships on cell proliferation was assessed for representative Compounds of the Disclosure on cancer cell lines. Briefly, compound treatment of cells started one day after seeding with a final DMSO concentration of 0.1%, and was performed by nanodrop-dispensing using a Tecan Dispenser. 0.1% DMSO (solvent) and Staurosporine (10 μM) served as high control (100% viability) and low control (0% viability), respectively.
Cells were cultured in the appropriate media. For the assays, cells were seeded in white cell culture-treated flat and clear bottom multiwell plates and incubated at 37° C. overnight before compound was added. After incubation for 72 h at 37° C. at 5% or 10% CO2 dependent on the medium, cell plates were equilibrated to room temperature for one hour, CellTiterGlo reagent (Promega) was added and luminescence was measured approximately an hour later using a luminometer.
Raw data were converted into percent cell viability relative to the high and low control, which were set to 100% and 0%, respectively.
The IC50 values are summarized in Tables 9A-1, Table 10A, and Table 10B.

`C=C[C@]1(CO)O[C@@H](Nc2[nH]c(=O)ncc2Br)C[C@@H]1O` [Cpd. No. 3, 5-bromo-6-(((2R,4S,5R)-4-hydroxy-5-(hydroxymethyl)-5-vinyltetrahydrofuran-2-yl)amino)pyrimidin-2(1H)-one] was tested, and the IC50 (5637 cell line (bladder)) was 5.02 µM, the IC50 (CLS439 cell line (bladder)) was > 50 µM and the IC50 (HS729 cell line (muscle)) was 4.91 µM. For the same compound, the IC50 (JAR cell line (placenta)) was > 50 µM, the IC50 (U20S cell line, bone) was > 50 µM and the IC50 (Homo sapiens, 22Rv1, 72 h, 22RV1 cell line (prostate)) was > 50 µM. For the same compound, the IC50 (Homo sapiens, 786-0, 72 h, 786O cell line (kidney)) was > 50 µM, the IC50 (Homo sapiens, A204, 72 h, A204 cell line (muscle)) was 1.1 µM and the IC50 (Homo sapiens, A549, 72 h, A549 cell line, lung) was 3.33 µM. The IC50 (Homo sapiens, A673, 72 h, A673 cell line (bone)) was > 50 µM, the IC50 (Homo sapiens, A2780, 72 h, A2780 cell line (ovary)) was > 50 µM and the IC50 (Homo sapiens, A-375, 72 h, A375 cell line (skin)) was 4.58 µM. For the same compound, the IC50 (Homo sapiens, A-431, 72 h, A431 cell line (skin)) was > 50 µM, the IC50 (Homo sapiens, ACHN, ACHN cell line (kidney)) was > 50 µM and the IC50 (Homo sapiens, ASPC1, 72 h, ASPC1 cell line (pancreas)) was > 50 µM. For the same compound, the IC50 (Homo sapiens, BT-20, 72 h, BT20 cell line (breast)) was > 50 µM, the IC50 (Homo sapiens, BXPC-3, 72 h, BXPC3 cell line (pancreas)) was > 50 µM and the IC50 (Homo sapiens, C-33-A, C33A cell line, endometrial) was 2.67 µM. For the same compound, the IC50 (Homo sapiens, CAKI-1, 72 h, CAKI1 cell line (kidney)) was 3.25 µM, the IC50 (Homo sapiens, COLO 205, 72 h, COLO205 cell line (colon)) was 2.31 µM and the IC50 (Homo sapiens, COLO-678, 72 h, COLO678 cell line (colon)) was > 50 µM. The IC50 (Homo sapiens, Ca-Ski, CASKI cell line, endometrial) was > 50 µM, the IC50 (Homo sapiens, Caco-2, 72 h, CACO2 cell line (colon)) was > 50 µM and the IC50 (Homo sapiens, Calu-6, 72 h, CALU6 cell line (lung)) was 6.06 µM. For the same compound, the IC50 (Homo sapiens, DLD-1, 72 h, DLD1 cell line (colon)) was > 50 µM, the IC50 (Homo sapiens, DU-145, 72 h, DU145 cell line (prostate)) was > 50 µM and the IC50 (Homo sapiens, EFO-21, 72 h, EFO21 cell line (ovary)) was > 50 µM. For the same compound, the IC50 (Homo sapiens, EJ-28, 72 h, EJ28 cell line (bladder)) was > 50 µM, the IC50 (Homo sapiens, Granta-519, 72 h, GRANTA-519 cell line (hematological)) was 1.06 µM and the IC50 (Homo sapiens, HCT-15, 72 h, HCT15 cell line (colon)) was > 50 µM. The IC50 (Homo sapiens, HCT-116, 72 h, HCT116 cell line (colon)) was 3.65 µM, the IC50 (Homo sapiens, HEK293, 72 h, HEK293 cell line (kidney)) was 3.46 µM and the IC50 (Homo sapiens, HL-60, 72 h, HL-60 cell line (hematological)) was 3.42 µM. The IC50 (Homo sapiens, HT-29, 72 h, HT29 cell line (colon)) was > 50 µM, the IC50 (Homo sapiens, HT-1080, 72 h, HT1080 cell line (connective tissue)) was 3.43 µM and the IC50 (Homo sapiens, HeLa, HELA cell line, endometrial) was 5.34 µM. The IC50 (Homo sapiens, HepG2, 72 h, HEPG2 cell line (liver)) was > 50 µM, the IC50 (Homo sapiens, Hs-578T, HS578T cell line, breast) was > 50 µM and the IC50 (Homo sapiens, IGROV-1, 72 h, IGROV1 cell line (ovary)) was > 50 µM. For the same compound, the IC50 (Homo sapiens, IMR-90, 72 h, IMR90 cell line, lung) was 5.39 µM, the IC50 (Homo sapiens, J82, 72 h, J82 cell line (bladder)) was > 50 µM and the IC50 (Homo sapiens, JEG-3, 72 h, JEG3 cell line (placenta)) was > 50 µM. It also gave an IC50 (Homo sapiens, JIMT-1, 72 h, JIMT1 cell line (breast)) of 11.8 µM, an IC50 (Homo sapiens, K562, 72 h, K-562 cell line (hematological)) of 5.04 µM and an IC50 (Homo sapiens, Kasumi 1, 72 h, KASUMI-1 cell line (hematological)) of 0.5 µM. For the same compound, the IC50 (Homo sapiens, L-363, 72 h, L-363 cell line (hematological)) was > 50 µM, the IC50 (Homo sapiens, LoVo, LOVO cell line (colon)) was > 50 µM and the IC50 (Homo sapiens, MCF7, 72 h, MCF7 cell line (breast)) was 2.6 µM. For the same compound, the IC50 (Homo sapiens, MDA-MB-231, 72 h, MDAMB231 cell line (breast)) was 2.96 µM, the IC50 (Homo sapiens, MDA-MB-435, 72 h, MDAMB435 cell line (skin)) was > 50 µM and the IC50 (Homo sapiens, MDA-MB-436, 72 h, MDAMB436 cell line (breast)) was 3.65 µM. For the same compound, the IC50 (Homo sapiens, MDA-MB-468, 72 h, MDAMB468 cell line (breast)) was > 50 µM, the IC50 (Homo sapiens, MG-63, 72 h, MG63 cell line (bone)) was 3.93 µM and the IC50 (Homo sapiens, MHH-ES-1, 72 h, MHHES1 cell line (bone)) was 4.87 µM. The IC50 (Homo sapiens, MIA PaCa-2, 72 h, MIAPACA2 cell line (pancreas)) was > 50 µM, the IC50 (Homo sapiens, MINO, MINO cell line (hematological)) was 1.51 µM and the IC50 (Homo sapiens, MV4-11, 72 h, MV4-11 cell line (hematological)) was 2.14 µM. For the same compound, the IC50 (Homo sapiens, NCI-H23, 72 h, NCI-H23 cell line (lung)) was 1.81 µM, the IC50 (Homo sapiens, NCI-H82, 72 h, NCIH82 cell line (lung)) was > 50 µM and the IC50 (Homo sapiens, NCI-H292, 72 h, NCIH292 cell line (lung)) was 5.41 µM. For the same compound, the IC50 (Homo sapiens, NCI-H460, 72 h, NCIH460 cell line (lung)) was > 50 µM, the IC50 (Homo sapiens, OVCAR-3, 72 h, OVCAR3 cell line (ovary)) was 3.08 µM and the IC50 (Homo sapiens, OVCAR-4, 72 h, OVCAR4 cell line (ovary)) was 3.18 µM. For the same compound, the IC50 (Homo sapiens, PANC-1, 72 h, PANC1 cell line (pancreas)) was > 50 µM, the IC50 (Homo sapiens, PC-3, 72 h, PC3 cell line (prostate)) was 4.81 µM and the IC50 (Homo sapiens, PLC-PRF-5, 72 h, PLCPRF5 cell line (liver)) was > 50 µM. The IC50 (Homo sapiens, Panc1005, 72 h, PANC1005 cell line (pancreas)) was > 50 µM, the IC50 (Homo sapiens, RD, RD cell line (muscle)) was 2.67 µM and the IC50 (Homo sapiens, Ramos, RAMOS cell line (hematological)) was 1.41 µM. For the same compound, the IC50 (Homo sapiens, SAOS-2, 72 h, SAOS2 cell line (bone)) was 1.7 µM, the IC50 (Homo sapiens, SF-268, 72 h, SF268 cell line (brain)) was > 50 µM and the IC50 (Homo sapiens, SF-295, 72 h, SF295 cell line (brain)) was > 50 µM. For the same compound, the IC50 (Homo sapiens, SK-BR-3, 72 h, SKBR3 cell line (breast)) was 3.45 µM, the IC50 (Homo sapiens, SK-HEP1, 72 h, SKHEP1 cell line (liver)) was 3.02 µM and the IC50 (Homo sapiens, SK-LMS-1, 72 h, SKLMS1 cell line (uterus)) was > 50 µM. The IC50 (Homo sapiens, SK-MEL-5, 72 h, SKMEL5 cell line, skin) was > 50 µM, the IC50 (Homo sapiens, SK-MEL-28, 72 h, SKMEL28 cell line (skin)) was 4.19 µM and the IC50 (Homo sapiens, SK-N-AS, SKNAS cell line (brain)) was 0.96 µM. The IC50 (Homo sapiens, SK-N-SH, SKNSH cell line (brain)) was 0.91 µM, the IC50 (Homo sapiens, SK-OV-3, 72 h, SKOV3 cell line (ovary)) was 2.45 µM and the IC50 (Homo sapiens, SNB-75, 72 h, SNB75 cell line (brain)) was > 50 µM. For the same compound, the IC50 (Homo sapiens, SU-DHL10, 72 h, SU-DHL-10 cell line (hematological)) was 5.56 µM, the IC50 (Homo sapiens, SU-DHL-6, 72 h, SU-DHL-6 cell line (hematological)) was > 50 µM and the IC50 (Homo sapiens, SW-620, 72 h, SW620 cell line (colon)) was > 50 µM. For the same compound, the IC50 (Homo sapiens, T-24, 72 h, T24 cell line (bladder)) was > 50 µM, the IC50 (Homo sapiens, TE-671, 72 h, TE671 cell line (muscle)) was 3.08 µM and the IC50 (Homo sapiens, THP-1, 72 h, THP-1 cell line (hematological)) was 3.01 µM. The IC50 (Homo sapiens, U-87 MG, U87MG cell line (brain)) was > 50 µM, the IC50 (Homo sapiens, UMUC3, 72 h, UMUC3 cell line (bladder)) was > 50 µM and the IC50 (Homo sapiens, UO-31, 72 h, UO31 cell line (kidney)) was > 50 µM. It also gave an IC50 (Homo sapiens, WSU-NHL, WSU-NHL cell line (hematological)) of 2.34 µM, an IC50 (MT-3, 72 h, MT3 cell line (breast)) of 3.68 µM and an IC50 (NCI-H358M, NCIH358M cell line (lung)) of 2.69 µM. The IC50 (PBMC, PBMC (hematological)) was > 50 µM and the IC50 (RD-ES, RDES cell line (bone)) was > 50 µM.
